Results published in the NIST ThermoML archive (doi:10.1021/je5009679).

Details: Liquid; for viscosity: Concentric cylinders viscometry

CC(=O)[O-].CCCCn1cc[n+](C)c1 [1-butyl-3-methylimidazolium acetate]
101.33 kPa
Details	viscosity [mPa·s]
293.15 K	592.3
303.15 K	274.1
313.15 K	142.4
323.15 K	81.88
333.15 K	51.11
343.15 K	33.65
353.15 K	23.51
363.15 K	17.09
373.15 K	12.93

Details	mass density [kg/m3]
293.15 K, 101.33 kPa, Vibrating tube method	1053.8
303.15 K, 101.33 kPa, Vibrating tube method	1047.4
311.4 K, 10000 kPa, Bellows volumetry	1046.7
311.4 K, 20000 kPa, Bellows volumetry	1050.8
311.4 K, 30000 kPa, Bellows volumetry	1054.8
311.4 K, 40000 kPa, Bellows volumetry	1058.6
311.4 K, 50000 kPa, Bellows volumetry	1062.3
311.4 K, 60000 kPa, Bellows volumetry	1065.8
311.4 K, 70000 kPa, Bellows volumetry	1069.3
311.4 K, 80000 kPa, Bellows volumetry	1072.7
311.4 K, 90000 kPa, Bellows volumetry	1076
311.4 K, 100000 kPa, Bellows volumetry	1079
311.4 K, 110000 kPa, Bellows volumetry	1082.1
311.4 K, 120000 kPa, Bellows volumetry	1085.1
311.4 K, 130000 kPa, Bellows volumetry	1088.1
311.4 K, 140000 kPa, Bellows volumetry	1090.9
311.4 K, 150000 kPa, Bellows volumetry	1093.7
311.4 K, 160000 kPa, Bellows volumetry	1096.5
311.4 K, 170000 kPa, Bellows volumetry	1099.1
311.4 K, 180000 kPa, Bellows volumetry	1101.9
311.4 K, 190000 kPa, Bellows volumetry	1104.5
311.4 K, 200000 kPa, Bellows volumetry	1107.1
313.15 K, 101.33 kPa, Vibrating tube method	1041.4
323.15 K, 101.33 kPa, Vibrating tube method	1035.4
331.1 K, 10000 kPa, Bellows volumetry	1034.7
331.1 K, 20000 kPa, Bellows volumetry	1039.1
331.1 K, 30000 kPa, Bellows volumetry	1043.3
331.1 K, 40000 kPa, Bellows volumetry	1047.3
331.1 K, 50000 kPa, Bellows volumetry	1051.2
331.1 K, 60000 kPa, Bellows volumetry	1054.9
331.1 K, 70000 kPa, Bellows volumetry	1058.5
331.1 K, 80000 kPa, Bellows volumetry	1062.1
331.1 K, 90000 kPa, Bellows volumetry	1065.2
331.1 K, 100000 kPa, Bellows volumetry	1068.7
331.1 K, 110000 kPa, Bellows volumetry	1071.9
331.1 K, 120000 kPa, Bellows volumetry	1075
331.1 K, 130000 kPa, Bellows volumetry	1078.2
331.1 K, 140000 kPa, Bellows volumetry	1081.1
331.1 K, 150000 kPa, Bellows volumetry	1084
331.1 K, 160000 kPa, Bellows volumetry	1086.8
331.1 K, 170000 kPa, Bellows volumetry	1089.6
331.1 K, 180000 kPa, Bellows volumetry	1092.4
331.1 K, 190000 kPa, Bellows volumetry	1095.1
331.1 K, 200000 kPa, Bellows volumetry	1097.7
333.15 K, 101.33 kPa, Vibrating tube method	1029.5
343.15 K, 101.33 kPa, Vibrating tube method	1023.7
351.3 K, 10000 kPa, Bellows volumetry	1023.2
351.3 K, 20000 kPa, Bellows volumetry	1027.7
351.3 K, 30000 kPa, Bellows volumetry	1032.1
351.3 K, 40000 kPa, Bellows volumetry	1036.4
351.3 K, 50000 kPa, Bellows volumetry	1040.4
351.3 K, 60000 kPa, Bellows volumetry	1044.3
351.3 K, 70000 kPa, Bellows volumetry	1048
351.3 K, 80000 kPa, Bellows volumetry	1051.6
351.3 K, 90000 kPa, Bellows volumetry	1055
351.3 K, 100000 kPa, Bellows volumetry	1058.4
351.3 K, 110000 kPa, Bellows volumetry	1061.7
351.3 K, 120000 kPa, Bellows volumetry	1065
351.3 K, 130000 kPa, Bellows volumetry	1068.1
351.3 K, 140000 kPa, Bellows volumetry	1071.2
351.3 K, 150000 kPa, Bellows volumetry	1074.3
351.3 K, 160000 kPa, Bellows volumetry	1077.3
351.3 K, 170000 kPa, Bellows volumetry	1080.2
351.3 K, 180000 kPa, Bellows volumetry	1083
351.3 K, 190000 kPa, Bellows volumetry	1086
351.3 K, 200000 kPa, Bellows volumetry	1088.5
353.15 K, 101.33 kPa, Vibrating tube method	1017.9
363.15 K, 101.33 kPa, Vibrating tube method	1012
371.3 K, 10000 kPa, Bellows volumetry	1011.7
371.3 K, 20000 kPa, Bellows volumetry	1016.5
371.3 K, 30000 kPa, Bellows volumetry	1021.2
371.3 K, 40000 kPa, Bellows volumetry	1025.5
371.3 K, 50000 kPa, Bellows volumetry	1029.6
371.3 K, 60000 kPa, Bellows volumetry	1033.8
371.3 K, 70000 kPa, Bellows volumetry	1037.7
371.3 K, 80000 kPa, Bellows volumetry	1041.5
371.3 K, 90000 kPa, Bellows volumetry	1045
371.3 K, 100000 kPa, Bellows volumetry	1048.5
371.3 K, 110000 kPa, Bellows volumetry	1051.9
371.3 K, 120000 kPa, Bellows volumetry	1055.3
371.3 K, 130000 kPa, Bellows volumetry	1058.6
371.3 K, 140000 kPa, Bellows volumetry	1061.8
371.3 K, 150000 kPa, Bellows volumetry	1064.9
371.3 K, 160000 kPa, Bellows volumetry	1067.8
371.3 K, 170000 kPa, Bellows volumetry	1071
371.3 K, 180000 kPa, Bellows volumetry	1073.9
371.3 K, 190000 kPa, Bellows volumetry	1076.8
371.3 K, 200000 kPa, Bellows volumetry	1079.5
373.15 K, 101.33 kPa, Vibrating tube method	1006.1
